In patent US20230165969A1, “PHARMACEUTICAL COMPOSITION COMPRISING ANTIBODY DRUG CONJUGATE AND USE THEREOF” (priority 2020, published 2023):

System: trastuzumab (Herceptin)-resistant human breast cancer cell strain JIMT-1 xenograft tumor
Experiment: Drug efficacy on JIMT-1 tumor-bearing mice
Assay type: in vivo, nu/nu nude mice
Conditions: 10 mg/kg, two intraperitoneal injections, observation for 34 days
Protocol: The tumor volumes and body weights were measured twice a week and the results were recorded.

## T-DM1
  tumor inhibition rate: no inhibition effect on tumors
